# Reference: ChEMBL document CHEMBL6078704, “Redesigning Berberines and Sanguinarines to Target Soluble Epoxide Hydrolase for Enhanced Anti-Inflammatory Efficacy” (J Med Chem, 2024)
# Calls of active or inactive are those of the source. The rule behind the calls is not given here.
# Key:
# Mus musculus [1] = assay: Antiinflammatory activity against cerulein-induced acute pancreatitis in CD1 mouse assessed as increase in plasma 14,15-EET/DHET ratio at 20 mg/kg, ip pretreated with cerulein followed by compound injection on 30 and 150 mins and measured 6 hrs post cerulein treatment relative to model group; type: functional; settings: time 30-360 min
# [2] = Acute toxicity in BALB/c mouse assessed as pathological changes in kidney tissue by measuring inflammation at 100 mg/kg, po single dose measured for 24 hrs; type: organism-based; settings: in vivo
# [3] = Acute toxicity in male BALB/c mouse assessed as physiological changes at 100 mg/kg, po single dose measured for 24 hrs; type: organism-based; settings: in vivo
# Staphylococcus aureus [4] = assay: Antimicrobial activity against Staphylococcus aureus ATCC 29213 by microbroth dilution method; type: functional
# HepG2 = assay: Cytotoxicity against human HepG2 cells assessed as cell viability at 0.5 to 5 uM measured after 48 hrs by CCK-8 assay; type: toxicity, cell-based; settings: hepg2, 48 h, dose 0.5-5 µM
# [5] = Acute toxicity in female BALB/c mouse assessed as physiological changes at 100 mg/kg, po single dose measured for 24 hrs; type: organism-based; settings: in vivo
# [6] = AUC (0 to infinity) in Sprague-Dawley rat at 20 mg/kg, po measured up to 24 hrs; type: ADME, organism-based; settings: in vivo
# Mus musculus [7] = assay: In vivo inhibition sEH activity in cerulein-induced acute pancreatitis in CD1 mouse model assessed as enzyme activity in pancreatic homogenate at 20 mg/kg, ip administered 30 and 150 mins post-cerulein treatment measured after 6 hrs post-cerulein treatment; type: functional, organism-based; settings: time 30-360 min
# [8] = Half life in Sprague-Dawley rat at 5 mg/kg, iv measured up to 24 hrs; type: ADME, organism-based; settings: in vivo
# [9] = Oral bioavailability in Sprague-Dawley rat at 20 mg/kg measured up to 24 hrs; type: ADME, organism-based; settings: in vivo
# [10] = AUC (0 to infinity) in Sprague-Dawley rat at 5 mg/kg, iv measured up to 24 hrs; type: ADME, organism-based; settings: in vivo
# Mus musculus [11] = assay: (§1) Anti-inflammatory activity in cerulein-induced acute pancreatitis in CD1 mouse model assessed as decrease in plasma IL-6 level at 20 mg/kg, ip administered 30 and 150 mins post-cerulein treatment measured after 6 hrs post-cerulein treatment by ELISA; type: functional, organism-based
# [12] = Clearance in Sprague-Dawley rat at 5 mg/kg, iv measured up to 24 hrs; type: ADME, organism-based; settings: in vivo
# Mus musculus [13] = assay: as §1, with “cerulein-induced pancreatitis by measuring pancreatic histopathology” for “plasma IL-6 level”, “H and E staining based analysis” for “ELISA”; type: functional, organism-based; settings: time 30-360 min
# [14] = Clearance in Sprague-Dawley rat at 20 mg/kg, po measured up to 24 hrs; type: ADME, organism-based; settings: in vivo
# [15] = Volume of distribution (Vz) in Sprague-Dawley rat at 20 mg/kg, po measured up to 24 hrs; type: ADME, organism-based; settings: in vivo
# Staphylococcus aureus [16] = assay: Antimicrobial activity against methicillin-resistant Staphylococcus aureus 19B120 by microbroth dilution method; type: functional
# [17] = Acute toxicity in BALB/c mouse assessed as pathological changes in liver tissue by measuring necrosis at 100 mg/kg, po single dose measured for 24 hrs; type: organism-based; settings: in vivo
# Mus musculus [18] = assay: Anti-inflammatory activity in carrageen-induced paw edema BALB/c mouse model assessed as inhibition of soft tissue edema and inflammation measured immediately at 20 mg/kg, po measured at 3 hrs; type: functional
# [19] = Tmax in Sprague-Dawley rat at 20 mg/kg, po measured up to 24 hrs; type: ADME, organism-based; settings: in vivo
# Mus musculus [20] = assay: Anti-inflammatory activity in cerulein-induced acute pancreatitis in CD1 mouse model assessed as decrease in plasma TNFalpha level at 20 mg/kg, ip administered 30 and 150 mins post-cerulein treatment measured after 6 hrs post-cerulein treatment by ELISA; type: functional, organism-based
# Mus musculus [21] = assay: Antiinflammatory activity against cerulein-induced acute pancreatitis in CD1 mouse assessed as increase in pancreatic 8,9-EET/DHET ratio at 20 mg/kg, ip pretreated with cerulein followed by compound injection on 30 and 150 mins and measured 6 hrs post cerulein treatment relative to model group; type: functional; settings: time 30-360 min
# [22] = Half life in Sprague-Dawley rat at 20 mg/kg, po measured up to 24 hrs; type: ADME, organism-based; settings: in vivo
# Mus musculus [23] = assay: Antiinflammatory activity against cerulein-induced acute pancreatitis in CD1 mouse assessed as increase in plasma 8,9-EET/DHET ratio at 20 mg/kg, ip pretreated with cerulein followed by compound injection on 30 and 150 mins and measured 6 hrs post cerulein treatment relative to model group; type: functional; settings: time 30-360 min
# [24] = Acute toxicity in BALB/c mouse assessed as pathological changes in kidney tissue by measuring hemorrhage at 100 mg/kg, po single dose measured for 24 hrs; type: organism-based; settings: in vivo
# [25] = Volume of distribution (Vz) in Sprague-Dawley rat at 5 mg/kg, iv measured up to 24 hrs; type: ADME, organism-based; settings: in vivo, read-out: Vz
# [26] = Cmax in Sprague-Dawley rat at 20 mg/kg, po measured up to 24 hrs; type: ADME, organism-based; settings: in vivo
# [27] = Cmax in Sprague-Dawley rat at 5 mg/kg, iv measured up to 24 hrs; type: ADME, organism-based; settings: in vivo
# [28] = AUC (0 to 24 hrs) in Sprague-Dawley rat at 20 mg/kg, po measured up to 24 hrs; type: ADME, organism-based; settings: in vivo
# [29] = AUC (0 to 24 hrs) in Sprague-Dawley rat at 5 mg/kg, iv measured up to 24 hrs; type: ADME, organism-based; settings: in vivo
# Mus musculus [30] = assay: Antiinflammatory activity against cerulein-induced acute pancreatitis in CD1 mouse assessed as increase in pancreatic 14,15-EET/DHET ratio at 20 mg/kg, ip pretreated with cerulein followed by compound injection on 30 and 150 mins and measured 6 hrs post cerulein treatment relative to model group; type: functional; settings: time 30-360 min
# [31] = Acute toxicity in BALB/c mouse assessed as pathological changes in liver tissue by measuring hemorrhage at 100 mg/kg, po single dose measured for 24 hrs; type: organism-based; settings: in vivo
# [32] = Tmax in Sprague-Dawley rat at 5 mg/kg, iv measured up to 24 hrs; type: ADME, organism-based; settings: in vivo
# HEK-293T = assay: Cytotoxicity against human 293T cells assessed as cell viability at 0.5 to 5 uM measured after 48 hrs by CCK-8 assay; type: toxicity, cell-based; settings: dose 0.5-5 µM
# [33] = Acute toxicity in BALB/c mouse assessed as pathological changes in liver tissue by measuring inflammation at 100 mg/kg, po single dose measured for 24 hrs; type: organism-based; settings: in vivo
# [34] = Acute toxicity in BALB/c mouse assessed as pathological changes in kidney tissue by measuring necrosis at 100 mg/kg, po single dose measured for 24 hrs; type: organism-based; settings: in vivo
smiles,measurement,setting,value
COc1cc2c(cc1OC)[C@H]1Cc3ccc(NC(=O)NCc4ccc(OC(F)(F)F)cc4)cc3CN1CC2,fold change (FC),Mus musculus [1],15.4
same,Activity,[2],Non-toxic
same,Activity,[3],Non-toxic
same,MIC,Staphylococcus aureus [4],> 64 µg/mL
same,Activity,HepG2,Non-toxic
same,Activity,[5],Non-toxic
same,AUC(0-inf),[6],110000 ng·h/mL
same,Activity,Mus musculus [7],Active
same,half-life,[8],6.1 h
same,bioavailability,[9],89.3%
same,AUC(0-inf),[10],29600 ng·h/mL
same,Activity,Mus musculus [11],Active
same,clearance,[12],2.85 mL/min/kg
same,Activity,Mus musculus [13],Active
same,CL/F,[14],3.03 mL/min/kg
same,Vz,[15],1.889 L/kg
same,MIC,Staphylococcus aureus [16],> 64 µg/mL
same,Activity,[17],Non-toxic
same,inhibition in vivo at 20 mg/kg,Mus musculus [18],33%
same,Tmax,[19],1.67 h
same,Activity,Mus musculus [20],Active
same,fold change (FC),Mus musculus [21],5.4
same,half-life,[22],7.2 h
same,fold change (FC),Mus musculus [23],3.8
same,Activity,[24],Non-toxic
same,Vd,[25],1.49 L/kg
same,Cmax,[26],10300 ng/mL
same,Cmax,[27],4860 ng/mL
same,AUC(0-t) at 24 h,[28],99500 ng·h/mL
same,AUC(0-t) at 24 h,[29],27800 ng·h/mL
same,fold change (FC),Mus musculus [30],26
same,Activity,[31],Non-toxic
same,Tmax,[32],4.8 min
same,Activity,HEK-293T,Non-toxic
same,Activity,[33],Non-toxic
same,Activity,[34],Non-toxic
